Test results reported in publication PMC7804942, “The amphibian peptide Yodha is virucidal for Zika and dengue viruses” (Scientific Reports, 2021).
Like-named read-outs stand apart in the source and are kept apart here. Where a SMILES comes first, the peptide text is derived from it.

Columns and labels:
[1] = test system: human red blood cells; type: cell-based
Method: Single donor human red blood cells (Innovative Research) were washed in PBS (pH 7.4) with three times centrifugation at 500 × g for 5 min. Serially diluted frog peptides or OVA control peptide were prepared in V-bottom 96 well plates and mixed with washed 2 × 10^7 human RBC per each well for 1 h at 37 °C. PBS solution was used as a negative control (0% lysis), and 0.1% Triton X-100 in PBS was used as 100% lysis. The plates were centrifuged at 300 × g at 4 °C for 5 min to pellet the intact RBCs and supernatant of each well was measured by absorbance at 450 nm.

[2] = test system: DENV2; experiment: Focus forming assay, dengue virus; type: cell-based; conditions: 50 µM peptide, FFA
Method: (§1) Dengue virus strains 1, 2, 3 and 4 were treated with wither Yodha or control OVA peptide at (A) 50 µM (B) 160 µM concentration and the % of viral focus forming units were determined. (C) IC50 measurement of Yodha in DENVs infection by FFA. […] OVA peptide was used a negative control.
(§2) Peptides were incubated with ZIKV (100 FFU/well) for 2 h at 37 °C. This incubated mixture was used to infect Vero cells for 1.5 h at 37 °C. Cells and inoculum were overlaid with 2% methylcellulose solution (OptiMEM; Gibco) and incubated for 72 h at 37 °C. Cells were washed with PBS and fixed with a 1:1 methanol/acetone mixture for 30 min. Cells were blocked with 5% milk/PSB at room temperature for 20 min and incubated with primary antibody (anti-flavivirus mouse 4G2[10] antibody) for 2 h at 37 °C. Then, cells were incubated with secondary antibody (HRP-conjugated goat anti-mouse IgG, Cell Signaling) for 1 h at 37 °C. Cells were developed with TrueBlue Peroxidase Substrate (KPL). Plates were read on a CTL-ImmunoSpot S6 Micro analyzer.

[3] = test system: DENV1; experiment: Focus forming assay, dengue virus; type: cell-based; conditions: 50 µM peptide, FFA
Method: as §1, §2

[4] = test system: DENV4; experiment: Focus forming assay, dengue virus; type: cell-based; conditions: 50 µM peptide, FFA
Method: as §1, §2

[5] = test system: MR766 ZIKV strain; experiment: ZIKV MR766 infection of IFNAR KO mice, morbidity; type: in vivo, mouse; conditions: MR766, peptide-treated vs control group
Method: To assess morbidity, we switched to IFNAR KO mice and infected them with the MR766 ZIKV strain.
All mouse studies were approved by the IACUC of Emory University. C57BL/6 mice were purchased from The Jackson Laboratory. All mice were maintained in specified pathogen-free in accordance with the institutional guidelines of Emory University’s Animal Care and Use Committee. All control and experimental mice were age- and sex-matched. For viral titer assessment, Wild-type C57BL/6 J mice were injected with 2 mg of an anti-Ifnar1 blocking antibody (MAR1-5A3) by the intraperitoneal route 24hrs prior to infection. Mice were anesthetized with isoflurane and inoculated by the subcutaneous route into both rear footpads with 5 × 10^4 PFU of ZIKV PRVABC59 (1 × 10^5 PFU total inoculum per mouse) in a 20µL inoculum diluted in Hanks balanced salt solution (HBSS) supplemented with 1% heat-inactivated FBS. For analysis of morbidity by ZIKV viral infection, we infected 5- to 6-week-old IFNAR KO mice with ZIKV MR766 (100 PFU total inoculum per mouse). Mice were monitored daily for morbidity and mortality.

[6] = test system: ZIKV; experiment: ZIKV neutralisation by mutant, enantiomer and variant peptides (strain not stated); type: cell-based, Zika virus
Method: To further characterize Yodha peptide, we generated alanine-scanning mutants of the peptide, which removes the side chain, but maintains peptide conformation, allowing for the assessment of the significance of each amino acid within the larger structure (Fig. 4A). Each of 23 mutated peptides was tested for its (a) ability to neutralize ZIKV (Fig. 4B) and (b) toxicity against human RBC, if any (Fig. 4C).
So next, we sought to determine how common this peptide or its analogs are in host defense peptides isolated from elsewhere in the world. […] We then determined the extent to which any of these variant peptides can neutralize ZIKV. […] We also generated a series of mutant Yodha peptides, including one which lacks the C terminal DDQERC, a short 12 peptide fragment that lacks the EEERGA from variant #12, and a S1P peptide that replace S1-P in the full-length Yodha (Fig. 5D) and tested their activity against ZIKV (Fig. 5D).
as §2

[7] = test system: ZIKV; experiment: Transmission electron microscopy of peptide-treated ZIKV; set-up: species or system Zika virus; conditions: 200 µM peptide, 10 min, negative staining TEM
Method: To test this, we treated ZIKV with Yodha peptide or control peptide for 10 min and analyzed virus particles by electron microscopy.
(A) TEM micrographs of ZIKV treated with OVA (control) or Yodha peptide are shown. ZIKV were incubated with the peptides at 200 µM for just 10 min, fixed with paraformaldehyde and then processed for electron microscopy. Yodha treatment led to loss of morphology and aggregation of virus particles. (B) Enlarged images of ZIKV treated with control or Yodha peptide from (A) are shown. The data is representative of three experiments performed.
ZIKV samples were fixed with 4% buffered paraformaldehyde before negative staining. 5 µl of Zika sample was then deposited onto a 400-mesh carbon-coated copper grid that had been treated by glow-discharged for 20 s and allowed 5 min for the sample to settle in a covered glass dish. The grids with samples were then quickly washed by touching the sample side on two drops double distilled water, wick with filter paper, and then stained with 1% phosphotungstic acid (PTA) for 15 s before removing PTA with filter paper. Zika virus was imaged on a JEOL JEM-1400 transmission electron microscope (JEOL Ltd., Tokyo, Japan) equipped with a Gatan US1000 CCD camera (Gatan, Pleasanton, CA).

[8] = test system: ZIKV (PRVABC59 strain); conditions: for reduction of ZIKV: dose escalation
Method: We screened frog skin peptides to identify peptides with potentially virucidal activity against ZIKV infection. Briefly, we incubated individual peptides with ZIKV (PRVABC59 strain) for 2 h and then tested viral viability in a focus-forming assay. […] A significant drawback of host defense peptides is that they can be toxic to mammalian cells. To identify non-toxic candidates among the 12 peptides, we measured the toxicity of each peptide against human erythrocytes. […] The C-terminus of Yodha peptide contains three negatively charged amino acids.
as §2, with “Peptides were incubated with ZIKV (100 FFU/well) for 2 h at 37 °C.” left out

CC[C@H](C)[C@H](NC(=O)[C@@H](NC(=O)CNC(=O)[C@H](CC(C)C)NC(=O)[C@H](Cc1ccccc1)NC(=O)[C@H](Cc1ccccc1)NC(=O)[C@H](CC(C)C)NC(=O)[C@H](CC(C)C)NC(=O)[C@H](CC(C)C)NC(=O)[C@H](CCSC)NC(=O)[C@@H](N)CO)[C@@H](C)O)C(=O)N[C@@H](CO)C(=O)N[C@@H](CC(C)C)C(=O)N[C@@H](CO)C(=O)N[C@@H](CC(C)C)C(=O)N[C@@H](CS)C(=O)N[C@@H](CCC(N)=O)C(=O)N[C@@H](CC(=O)O)C(=O)N[C@@H](CC(=O)O)C(=O)N[C@@H](CCC(N)=O)C(=O)N[C@@H](CCC(=O)O)C(=O)N[C@@H](CCCNC(=N)N)C(=O)N[C@@H](CS)C(=O)O [Yodha] (H-SMLLLFFLGTISLSLCQDDQERC-OH; N-terminus and C-terminus assumed)
cytotoxicity against human erythrocytes (screen of the 12 hits) [1]: no cytotoxicity
inhibition of DENV2 [2]: efficiently inhibited
inhibition of DENV1 [3]: efficiently inhibited
inhibition of DENV4 [4]: efficiently inhibited
weight changes [5]: did not observe any differences
survival ([5]; data not shown): did not observe any differences
anti-viral activity against ZIKV, D- versus L-enantiomer [6]: comparable anti-viral activity
virus particle integrity by electron microscopy [7]: disruption of viral particles
reduction of ZIKV ([8]; 10 µM peptide, FFA): 35%
reduction of ZIKV ([8]; 20 µM peptide, FFA): 50%
Viral titers (FFU) after timed exposure ([8]; 20 µM peptide, exposure 5 min, 15 min, 30 min, 1 h and 2 h, all time points): significantly decreased
reduction of ZIKV ([8]; 40 µM peptide, FFA): 65%
inhibition of ZIKV strain ([8]; 50 µM and 100 µM peptide vs OVA control, FFA): inhibited
reduction of ZIKV ([8]; 80 µM peptide, FFA): 80%
reduction of ZIKV ([8]; 160 µM peptide, FFA): 90%
IC50 ([8]; PRVABC59 strain, 2 h): 20 µM
time of exposure needed to neutralize / destroy ZIKV ([8]; exposure of virus to peptide): ≤ 5 min
